Here are results for four compounds from ChEMBL document CHEMBL1201862, “PubChem BioAssay data set” (2004).

The target in test [1] is Acyl-homoserine lactone acylase PvdQ (Pseudomonas aeruginosa (strain LESB58), UniProt Q9I194). Kind of test: P. aeruginosa PvdQ acylase inhibitors, dose response, biochemical, fluorescence, plate reader and imaging, cherry-picks (AID 493231).
In test [2] the target is T1, Tyrosine-protein phosphatase non-receptor type 7 (Homo sapiens, UniProt P35236).
T1 sequence (P35236 whole entry): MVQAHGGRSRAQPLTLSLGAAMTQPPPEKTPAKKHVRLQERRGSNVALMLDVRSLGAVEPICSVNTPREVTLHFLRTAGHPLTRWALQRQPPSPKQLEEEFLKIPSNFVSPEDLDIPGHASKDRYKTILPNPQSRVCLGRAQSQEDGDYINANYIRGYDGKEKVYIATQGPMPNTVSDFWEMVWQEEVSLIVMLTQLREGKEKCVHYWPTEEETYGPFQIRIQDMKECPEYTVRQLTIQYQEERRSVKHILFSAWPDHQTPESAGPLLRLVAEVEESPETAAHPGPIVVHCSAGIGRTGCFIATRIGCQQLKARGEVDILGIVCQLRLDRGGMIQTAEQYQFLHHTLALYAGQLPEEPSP
It counts as functional.

The target of test [3] is Glyceraldehyde-3-phosphate dehydrogenase (Homo sapiens, UniProt P04406).
For test [4], the target named is T2, Dual specificity protein phosphatase 6 (Rattus norvegicus, UniProt Q64346).
T2 sequence (Q64346 whole entry): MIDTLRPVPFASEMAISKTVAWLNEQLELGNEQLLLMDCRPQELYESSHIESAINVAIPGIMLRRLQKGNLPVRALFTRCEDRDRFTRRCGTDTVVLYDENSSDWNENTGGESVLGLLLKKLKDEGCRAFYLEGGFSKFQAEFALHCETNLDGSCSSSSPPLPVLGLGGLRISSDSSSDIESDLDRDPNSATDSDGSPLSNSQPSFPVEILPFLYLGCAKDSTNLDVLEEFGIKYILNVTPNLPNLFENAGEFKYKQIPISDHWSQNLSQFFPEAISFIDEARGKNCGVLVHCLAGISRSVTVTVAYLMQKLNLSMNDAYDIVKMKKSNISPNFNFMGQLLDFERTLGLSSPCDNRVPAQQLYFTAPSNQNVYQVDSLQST

Test [5] has as its target T3, Dual specificity protein phosphatase 3 (Homo sapiens, UniProt P51452). Kind of test: SAR VHR1 Fluorescent Assay for In Vitro dose response studies. [Related pubchem assays (depositor defined):AID1654, AID1661, AID1878, AID1992, AID2004, AID2070, AID2085]. It counts as functional.
For test [6], the target named is T3, Dual specificity protein phosphatase 3. Description: MOA VHR1 Fluorescent secondary assay for identification of redox-state modulating compounds. [Related pubchem assays (depositor defined):AID1654, AID1661, AID1878, AID1957].
For test [7], the target named is T1, Tyrosine-protein phosphatase non-receptor type 7. Description: redox-dependent HePTP inhibition, mechanism study, biochemical, fluorescence (AID 2068). It counts as functional.
The target of test [8] is T2, Dual specificity protein phosphatase 6. Type of test: functional.
The target in a further test is Aspartyl aminopeptidase (Plasmodium falciparum 3D7, UniProt Q8I2J3).
Another test deals with Procathepsin L (Homo sapiens, UniProt P07711).
Test [9] in a line: inhibitors of firefly luciferase expression or activity, dose response, H4 neuroglioma cells, luminescence (AID 1990). Type of test: functional, cell-based.
A short description of test [10]: luciferase reporter signal reduction – luminescence, H4-C neuroglioblastoma cells, dose response (AID 2458).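 Note: H4 neuroglioblastoma cells stably carrying a luciferase reporter gene fusion.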 Type of test: functional, cell-based. In general terms: A reporter such as luciferase makes a cellular process visible.
Test [11] relates to HEK293. Description: PMA/Ionomycin induced NF-kB luciferase assay in 293- NF-kB-Luc stable cells. [Related pubchem assays: 1299, 1270, 1295, 1375, 1287, 1281, 1293, 1291, 1289, 1280, 465, 1364, 1282, 1372, 1365, 1370, 1367, 1366, 1269, 1373, 1292, 1290, 1302, 1371, 1283, 1271, 1294, 1374, 1368, 1369 ]. It counts as functional, cell-based. The note with it: Homo sapiens.
Test [12] has as its target Luciferin 4-monooxygenase (Photinus pyralis, UniProt P08659). Description: In vitro luciferase assay using purified luciferase. [Related pubchem assays: 1299, 1270, 1295, 1375, 1287, 1281, 1293, 1291, 1289, 1280, 465, 1364, 1282, 1372, 1365, 1370, 1367, 1366, 1266, 1373, 1292, 1290, 1302, 1371, 1283, 1271, 1294, 1374, 1368, 1369 ].
A short description of a further test: cells. Type of test: functional, cell-based.
Test [13] in a line: inhibitors of SNCA 5'UTR-driven reporter translation, confirmation, H4 neuroglioma cells, luminescence (AID 1988). It counts as functional, cell-based.
The subject of a further test is BJ. Description: cells. It counts as functional, cell-based. The note with it: Homo sapiens.
In test [14] the test system is HEK293. Kind of test: PMA/Ionomycin-induced IL-8 production in HEK293- NF-kB-Luc stable cells. [Related pubchem assays: 1299, 1295, 1375, 1287, 1281, 1293, 1291, 1289, 1280, 465, 1364, 1282, 1372, 1365, 1367, 1366, 1266, 1269, 1373, 1292, 1290, 1302, 1371, 1283, 1271, 1294, 1374, 1368, 1369 ]. It counts as functional, cell-based. The note with it: Homo sapiens.
Test [15] concerns HEK293. Description: Cytotoxicity assay in HEK293 cells. [Related pubchem assays (depositor defined):AID1266, AID1269, AID1270, AID1271, AID1280, AID1281, AID1282, AID1283, AID1287, AID1289, AID1290, AID1291, AID1292, AID1293, AID1294, AID1295, AID1299, AID1302, AID1364, AID1365, AID1366, AID1367, AID1369, AID1370, AID1371, AID1372, AID1373, AID1374, AID1375, AID1384 …. Conditions: Homo sapiens. Type of test: functional, cell-based.

A short description of test [16]: inhibitors of SNCA 5'UTR-driven translation, confirmation, luminescence, H4 neuroglioblastoma cells, dose confirmation (AID 2454).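 Note: H4 neuroglioblastoma cells carrying an alpha-synuclein 5'UTR luciferase reporter; potency for inhibition of the luciferase signal.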 It counts as functional, cell-based.
Test [17] has as its system HEK293. Description: TNF Induced NF-kB Luciferase in 293-NF-kB-Luc Stable Cells. [Related pubchem assays: 1266, 1299, 1269, 1373, 1292, 1290, 1302, 1371, 1283, 1270, 1295, 1271, 1375, 1294, 1374, 1281, 1293, 1291, 1289, 1280, 465, 1368, 1364, 1282, 1372, 1365, 1369, 1370, 1367, 1366 ]. It counts as functional, cell-based. Conditions: Homo sapiens.
A short description of test [18]: cytotoxicity in HEK-293T cells, dose response, cytotoxicity control for TCR NF-kB inhibitor project, luminescence, T-cell screen hits (AID 489026).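 Note: cells exposed to compound about 14 hours before the viability readout.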 Type of test: functional, cell-based.
For test [19], the target named is T4, Microphthalmia-associated transcription factor (Homo sapiens, UniProt O75030).
T4 sequence (O75030 whole entry): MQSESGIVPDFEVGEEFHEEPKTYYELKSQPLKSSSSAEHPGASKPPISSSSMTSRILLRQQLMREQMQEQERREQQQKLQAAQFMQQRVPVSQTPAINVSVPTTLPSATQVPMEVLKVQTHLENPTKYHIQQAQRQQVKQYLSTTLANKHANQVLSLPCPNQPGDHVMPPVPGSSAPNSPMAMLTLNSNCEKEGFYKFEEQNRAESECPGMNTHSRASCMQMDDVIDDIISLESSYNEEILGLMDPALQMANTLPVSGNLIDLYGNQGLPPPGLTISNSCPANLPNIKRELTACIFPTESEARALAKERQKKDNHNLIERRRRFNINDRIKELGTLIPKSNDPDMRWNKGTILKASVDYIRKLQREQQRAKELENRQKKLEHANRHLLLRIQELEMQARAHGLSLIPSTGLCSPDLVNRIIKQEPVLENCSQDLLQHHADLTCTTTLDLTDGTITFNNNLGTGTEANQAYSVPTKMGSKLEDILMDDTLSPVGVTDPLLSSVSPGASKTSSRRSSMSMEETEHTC
Kind of test: TRPM1 promoter luciferase signal decrease, dose response, MITF inhibitor project, cell-based, SK-MEL-5, cherry-picked, set 3 (AID 493073).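 Note: SK-MEL-5 melanoma cells with luciferase driven by the MITF target TRPM1 promoter.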 It counts as functional.

The test system of test [20] is A-375. Kind of test: MITF: Counter assay: A375 proliferation Measured in Cell-Based System Using Plate Reader - 2084-03_Inhibitor_Dose_DryPowder_Activity. [Related pubchem assays (depositor defined):AID488944]. Type of test: functional. Conditions: Homo sapiens.
The test system of test [21] is A-375. Kind of test: A375 melanoma cell viability reduction, dose response, counter-screen for MITF modulator project, cherry-pick samples, set 2 (AID 540335). Type of test: functional, cell-based. Conditions: Homo sapiens. (In general: A counterscreen serves to expose hits that act by an unwanted route or on another target.)

Calls of active or inactive are those of the source.

T3 sequence (P51452 whole entry): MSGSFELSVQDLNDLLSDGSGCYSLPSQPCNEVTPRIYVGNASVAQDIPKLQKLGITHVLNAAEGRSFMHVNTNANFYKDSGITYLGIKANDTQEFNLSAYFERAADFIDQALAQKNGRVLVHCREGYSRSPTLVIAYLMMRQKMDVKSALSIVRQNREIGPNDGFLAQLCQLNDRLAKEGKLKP
Chain of Luciferin 4-monooxygenase (P08659 whole entry): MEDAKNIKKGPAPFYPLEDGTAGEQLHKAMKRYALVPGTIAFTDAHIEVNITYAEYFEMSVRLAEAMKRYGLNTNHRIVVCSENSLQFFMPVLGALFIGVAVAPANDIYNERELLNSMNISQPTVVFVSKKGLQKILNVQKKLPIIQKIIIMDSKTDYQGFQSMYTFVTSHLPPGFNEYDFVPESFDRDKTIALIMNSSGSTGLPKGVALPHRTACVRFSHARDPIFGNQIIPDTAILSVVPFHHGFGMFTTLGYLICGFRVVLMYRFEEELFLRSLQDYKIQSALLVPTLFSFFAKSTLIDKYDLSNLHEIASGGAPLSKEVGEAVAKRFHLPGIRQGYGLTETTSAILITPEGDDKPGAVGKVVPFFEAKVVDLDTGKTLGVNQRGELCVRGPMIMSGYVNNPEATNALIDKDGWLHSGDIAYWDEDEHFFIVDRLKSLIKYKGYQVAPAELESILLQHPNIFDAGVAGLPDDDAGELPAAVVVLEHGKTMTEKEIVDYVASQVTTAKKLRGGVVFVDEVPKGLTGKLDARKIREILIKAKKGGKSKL
Chain of Glyceraldehyde-3-phosphate dehydrogenase (P04406 whole entry): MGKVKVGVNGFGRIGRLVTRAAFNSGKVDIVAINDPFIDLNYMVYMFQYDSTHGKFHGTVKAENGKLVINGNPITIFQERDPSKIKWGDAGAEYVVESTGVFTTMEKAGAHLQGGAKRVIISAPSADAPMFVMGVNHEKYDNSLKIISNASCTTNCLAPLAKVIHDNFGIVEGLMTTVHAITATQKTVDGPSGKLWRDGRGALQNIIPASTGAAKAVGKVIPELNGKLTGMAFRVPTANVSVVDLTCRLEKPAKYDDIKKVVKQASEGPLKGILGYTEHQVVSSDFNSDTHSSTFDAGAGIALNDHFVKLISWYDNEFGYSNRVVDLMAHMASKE
Chain of Procathepsin L (P07711 whole entry): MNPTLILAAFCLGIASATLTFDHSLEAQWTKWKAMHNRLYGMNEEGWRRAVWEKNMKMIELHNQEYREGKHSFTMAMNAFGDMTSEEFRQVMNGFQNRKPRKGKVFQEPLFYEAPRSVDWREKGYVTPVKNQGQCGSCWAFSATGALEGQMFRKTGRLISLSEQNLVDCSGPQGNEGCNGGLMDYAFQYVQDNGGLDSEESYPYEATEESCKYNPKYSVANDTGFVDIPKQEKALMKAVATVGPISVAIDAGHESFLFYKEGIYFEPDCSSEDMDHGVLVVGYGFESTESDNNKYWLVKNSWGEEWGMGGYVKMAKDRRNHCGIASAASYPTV
Chain of Acyl-homoserine lactone acylase PvdQ (Q9I194 24-193 limits assumed): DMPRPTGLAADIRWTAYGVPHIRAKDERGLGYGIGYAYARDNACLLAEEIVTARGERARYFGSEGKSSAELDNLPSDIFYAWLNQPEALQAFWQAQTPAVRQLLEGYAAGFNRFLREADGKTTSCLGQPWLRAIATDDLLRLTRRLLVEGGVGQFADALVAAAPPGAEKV
Chain of Acyl-homoserine lactone acylase PvdQ (Q9I194 217-762 limits assumed): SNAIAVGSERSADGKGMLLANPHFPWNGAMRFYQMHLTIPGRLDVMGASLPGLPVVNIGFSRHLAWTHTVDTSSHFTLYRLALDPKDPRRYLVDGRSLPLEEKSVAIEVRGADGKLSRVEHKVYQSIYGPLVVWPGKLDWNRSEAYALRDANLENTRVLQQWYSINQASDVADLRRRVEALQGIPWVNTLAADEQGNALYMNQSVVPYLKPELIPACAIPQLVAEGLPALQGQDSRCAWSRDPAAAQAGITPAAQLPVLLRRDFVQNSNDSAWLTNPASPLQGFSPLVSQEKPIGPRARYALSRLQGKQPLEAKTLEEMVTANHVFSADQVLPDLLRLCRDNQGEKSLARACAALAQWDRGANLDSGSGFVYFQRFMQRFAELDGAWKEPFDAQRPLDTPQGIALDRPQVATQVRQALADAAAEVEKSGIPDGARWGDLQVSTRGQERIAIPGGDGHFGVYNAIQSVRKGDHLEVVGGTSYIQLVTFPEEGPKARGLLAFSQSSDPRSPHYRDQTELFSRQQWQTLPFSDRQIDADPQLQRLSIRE
Chain of Aspartyl aminopeptidase (Q8I2J3 whole entry): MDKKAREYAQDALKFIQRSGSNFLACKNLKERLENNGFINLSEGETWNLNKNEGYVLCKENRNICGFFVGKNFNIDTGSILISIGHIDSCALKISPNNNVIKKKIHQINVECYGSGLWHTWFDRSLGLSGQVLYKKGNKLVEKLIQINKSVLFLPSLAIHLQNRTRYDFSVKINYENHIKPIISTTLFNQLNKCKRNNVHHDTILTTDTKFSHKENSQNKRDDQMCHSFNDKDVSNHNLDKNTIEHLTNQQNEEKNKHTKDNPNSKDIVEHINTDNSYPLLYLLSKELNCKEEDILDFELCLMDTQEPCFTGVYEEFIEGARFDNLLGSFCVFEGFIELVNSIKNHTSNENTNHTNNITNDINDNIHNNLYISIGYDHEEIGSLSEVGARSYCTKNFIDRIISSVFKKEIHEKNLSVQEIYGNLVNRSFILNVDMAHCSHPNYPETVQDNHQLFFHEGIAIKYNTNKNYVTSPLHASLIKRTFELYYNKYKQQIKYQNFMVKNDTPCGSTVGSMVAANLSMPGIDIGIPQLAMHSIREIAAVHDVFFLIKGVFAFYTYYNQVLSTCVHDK

In general, AC50 refers to the concentration at which the activity in the assay is half-maximal. Regarding `N#CC(c1ccc(Cl)cc1)c1cccc(Cl)n1` (stereo not given), the concentration at half-maximal activity (AC50) in test [1] is 0.5 µM (active).
By IC50 is commonly meant the midpoint of a concentration-inhibition curve. In the case of `O=c1/c(=C/c2ccco2)sc2nc3cc(Br)cnc3n12`, the 50% inhibitory concentration (IC50) in test [2] was 0.543 µM (active); in test [3], 27.8 µM (active); in test [4] it was 4.4 µM (active); in [5] it was 1.23 µM (active); in test [6], 0.345 µM (active); in test [7], 0.127 µM (active). Moreover, in test [8], the concentration for half-maximal inhibition (IC50) is 6.58 µM (active).
On to `O=C(Nc1cccc([N+](=O)[O-])c1)Nn1cnnc1`, for which the IC50 on Aspartyl aminopeptidase was 0.93 µM (active); against Procathepsin L, > 59.6 µM (not active).
The term EC50 denotes the concentration at which the effect is half-maximal. On to `COc1cc(C2C(C#N)=C(N)Oc3cc(N(C)C)ccc32)cc2c1OCO2` (stereo not given), for which the EC50 was < 0.1 µM (active) in test [9]; 0.096 µM (active) in test [10]; 2.18 µM (active) in the test with HEK293 [11]; > 8 µM (not active) in test [12]; 0.116 µM (active) in the test “cells”; < 0.1 µM (active) in [13]. Moreover, the 50% effective concentration (EC50) with BJ was 121 µM (inconclusive); in the test with HEK293 [14] it was > 8 µM (not active); in the test with HEK293 [15], > 8 µM (inactive); in test [16], 0.106 µM (active); with HEK293 [17], > 8 µM (not active). The IC50 in test [18] is > 80 µM (inactive). The AC50 was 0.601 µM (active) in test [19], > 35 µM (active) in the test with A-375 [20] and > 35 µM (active) with A-375 [21].
